Experimental data from patent publication US8895733B2 (Novartis AG, priority 2010, dated 2014).

Molecular target: T1, Nav 1.7 (Homo sapiens, UniProt Q15858)
T1 construct: expressed in transfected cells
Test: Whole-cell voltage clamp electrophysiology, automated patch clamp (marker c in Table of Examples)
Format: cell-based
Settings: marker c: Automated patch clamp data; read-out: Nav 1.7 activity
Description: a.IonWork Quattro data, b=Manual patch clamp data, c=Automated patch clamp data M=Method
Whole-Cell Voltage Clamp Electrophysiology Assay
Patch-clamp electrophysiology is considered the gold standard technique for investigation of ion channel function and pharmacology. Using this method, sodium channel currents can be measured in cells, which stably (or transiently) express the sodium channel subtype of interest. Application of compounds during such experiments provides a functional measure of the activity and potency of compounds affecting the ion channel of interest.
Electrophysiological studies can be performed using automated or manual patch-clamp techniques. Automated patch-clamp instruments suitable for this work include the Ion Works HT (MDS), Ion Works Quattro (MDS), PatchLiner (Nanion technologies), Port-A-Patch (Nanion technologies), QPatch (Sophion) or any other suitable platform.
For recording in automated patch-clamp instruments, cells expressing the voltage-gated sodium channel subtype of interest are dispensed in appropriate chips (plates with more than one recording chambers each containing one or more apertures to generate whole-cell patches), as provided by the manufacturer. Typically, the whole-cell perforated patch configuration is used for probing the pharmacology of compounds in automated patch-clamp electrophysiology on sodium channels. Extracellular and intracellular buffers for such experiments are composed according to the literature, or according to the instructions provided by the manufacturer of the instruments. Test solutions, which contain the compounds to be tested, are applied to the cells expressing the sodium channel of interest by a pipetting system, typically integrated into the robots.
A suitable voltage stimulus protocol is used to activate voltage-gated sodium channel proteins of interest. A typical stimulus protocol may consist of sweeps of sequential voltage pulses starting from a holding potential (i.e. −65 mV), to a more positive and depolarising test pulse potential (i.e. −10 mV) and finally to a more negative and hyperpolarising potential (i.e. −100 mV). According to the biophysics of the voltage-gated ion channel of interest and interest in channel configuration the voltages and durations of the pulses as well as the overall frequency of sweeps applied might vary. Accordingly, a stimulus protocol was designed to assess compounds due to their potential to block NaV1.7 channels primarily in inactivated state. Selectivity over other voltage-gated sodium channel members was assessed by protocols that reflect the native function of the channels (i.e. heart rate or firing of neurons).

T1 sequence (Q15858 whole entry): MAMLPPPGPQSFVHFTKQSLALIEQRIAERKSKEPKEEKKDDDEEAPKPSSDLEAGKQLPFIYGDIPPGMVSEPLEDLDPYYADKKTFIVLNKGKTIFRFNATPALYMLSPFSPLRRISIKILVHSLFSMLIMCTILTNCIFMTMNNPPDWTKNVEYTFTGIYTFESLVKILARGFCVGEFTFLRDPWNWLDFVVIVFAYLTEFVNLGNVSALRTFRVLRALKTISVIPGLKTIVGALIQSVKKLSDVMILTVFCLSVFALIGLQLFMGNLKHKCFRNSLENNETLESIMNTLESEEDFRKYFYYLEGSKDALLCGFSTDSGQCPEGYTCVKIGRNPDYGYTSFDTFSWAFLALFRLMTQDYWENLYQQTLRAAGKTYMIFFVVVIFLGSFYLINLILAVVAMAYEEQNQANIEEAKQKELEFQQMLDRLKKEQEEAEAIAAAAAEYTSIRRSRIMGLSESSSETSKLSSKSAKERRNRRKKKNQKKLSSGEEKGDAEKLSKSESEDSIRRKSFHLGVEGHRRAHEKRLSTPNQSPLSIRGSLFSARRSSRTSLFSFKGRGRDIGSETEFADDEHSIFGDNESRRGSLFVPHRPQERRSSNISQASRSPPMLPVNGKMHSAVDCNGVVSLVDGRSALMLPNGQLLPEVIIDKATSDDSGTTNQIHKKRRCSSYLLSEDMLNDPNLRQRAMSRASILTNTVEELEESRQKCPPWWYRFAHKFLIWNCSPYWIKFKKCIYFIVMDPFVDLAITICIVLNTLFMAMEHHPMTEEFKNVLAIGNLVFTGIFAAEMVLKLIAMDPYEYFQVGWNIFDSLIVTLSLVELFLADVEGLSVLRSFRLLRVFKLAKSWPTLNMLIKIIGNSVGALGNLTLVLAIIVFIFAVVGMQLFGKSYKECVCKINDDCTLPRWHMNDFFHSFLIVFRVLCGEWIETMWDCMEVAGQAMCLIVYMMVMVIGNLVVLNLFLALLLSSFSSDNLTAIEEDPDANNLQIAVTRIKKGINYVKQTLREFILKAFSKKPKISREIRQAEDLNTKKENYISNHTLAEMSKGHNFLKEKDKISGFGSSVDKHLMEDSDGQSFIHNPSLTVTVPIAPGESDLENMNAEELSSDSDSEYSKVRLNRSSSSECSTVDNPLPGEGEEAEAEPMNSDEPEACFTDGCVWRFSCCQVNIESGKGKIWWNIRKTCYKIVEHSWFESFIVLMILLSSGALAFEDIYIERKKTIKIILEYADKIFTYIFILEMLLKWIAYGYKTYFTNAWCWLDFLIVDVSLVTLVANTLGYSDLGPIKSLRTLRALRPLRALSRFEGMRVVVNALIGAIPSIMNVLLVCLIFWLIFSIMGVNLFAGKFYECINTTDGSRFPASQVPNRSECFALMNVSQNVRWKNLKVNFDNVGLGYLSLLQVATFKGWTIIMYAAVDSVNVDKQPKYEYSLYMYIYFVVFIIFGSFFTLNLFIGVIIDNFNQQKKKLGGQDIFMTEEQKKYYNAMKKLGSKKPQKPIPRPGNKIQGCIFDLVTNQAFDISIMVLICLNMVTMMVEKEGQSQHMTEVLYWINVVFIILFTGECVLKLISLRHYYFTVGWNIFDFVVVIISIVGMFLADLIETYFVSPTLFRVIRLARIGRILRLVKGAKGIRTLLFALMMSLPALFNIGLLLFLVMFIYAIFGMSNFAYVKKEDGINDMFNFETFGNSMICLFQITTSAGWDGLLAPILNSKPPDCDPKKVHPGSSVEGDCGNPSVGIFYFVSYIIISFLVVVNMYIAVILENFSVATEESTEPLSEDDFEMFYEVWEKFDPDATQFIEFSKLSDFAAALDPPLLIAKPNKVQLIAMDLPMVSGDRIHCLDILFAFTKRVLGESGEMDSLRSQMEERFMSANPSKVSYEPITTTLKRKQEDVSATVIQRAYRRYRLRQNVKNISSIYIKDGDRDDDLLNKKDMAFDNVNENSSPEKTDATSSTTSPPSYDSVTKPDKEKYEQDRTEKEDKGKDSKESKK

Row | Compound | IC50
1 | Cc1ccc(-c2nc(-c3nc(N)nc(N(C)c4ccccc4)n3)no2)s1 [Example 129, N-Methyl-6-[5-(5-methyl-thiophen-2-yl)-[1,2,4]oxadiazol-3-yl]-N-phenyl-[1,3,5]triazine-2,4-diamine] | 2540 nM
2 | CN(c1ccccc1)c1nc(N)nc(-c2noc(N3CCCC3)n2)n1 [Example 131, N-Methyl-N-phenyl-6-(5-pyrrolidin-1-yl-[1,2,4]oxadiazol-3-yl)-[1,3,5]triazine-2,4-diamine] | 5110 nM
3 | CN(c1nc(N)nc(-c2noc(-c3ccc(OCC4CC4)nc3)n2)n1)c1ccccc1F [Example 134, 6-{5-[6-(cyclopropylmethoxy)pyridin-3-yl]-1,2,4-oxadiazol-3-yl}-2-N-(2-fluorophenyl)-2-N-methyl-1,3,5-triazine-2,4-diamine] | 67 nM
4 | Nc1nc(Nc2cccc(F)c2)nc(-c2noc(-c3ccc(OCC4CC4)nc3)n2)n1 [Example 136, 6-{5-[6-(cyclopropylmethoxy)pyridin-3-yl]-1,2,4-oxadiazol-3-yl}-2-N-(3-fluorophenyl)-1,3,5-triazine-2,4-diamine] | 65 nM
5 | CN(c1ccccc1)c1nc(N)nc(-c2noc(C(=O)N3CC(Oc4ccc(F)cc4)C3)n2)n1 [Example 137] | 564 nM
6 | Nc1nc(Nc2ccccc2F)nc(-c2noc(-c3ccc(OCC4CC4)nc3)n2)n1 [Example 138, 6-{5-[6-(cyclopropylmethoxy)pyridin-3-yl]-1,2,4-oxadiazol-3-yl}-2-N-(2-fluorophenyl)-1,3,5-thazine-2,4-diamine] | 106 nM
7 | Nc1nc(Nc2cccc(F)c2F)nc(-c2noc(-c3ccc(OCC4CC4)nc3)n2)n1 [Example 139, 6-{5-[6-(cyclopropylmethoxy)pyridin-3-yl]-1,2,4-oxadiazol-3-yl}-2-N-(2,3-difluorophenyl)-1,3,5-triazine-2,4-diamine] | 144 nM
8 | CN(c1nc(N)nc(-c2noc(-c3ccc(OCC4CC4)nc3)n2)n1)c1cccc(F)c1F [Example 140, 6-{5-[6-(cyclopropylmethoxy)pyridin-3-yl]-1,2,4-oxadiazol-3-yl}-2-N-(2,3-difluorophenyl)-2-N-methyl-1,3,5-triazine-2,4-diamine] | 85 nM
9 | CN(c1ccccc1)c1nc(N)nc(-c2noc(-c3ccc(OC4CCOC4)nc3)n2)n1 (stereo not shown) [Example 141, 2-N-methyl-6-{5-[6-(oxolan-3-yloxy)pyridin-3-yl]-1,2,4-oxadiazol-3-yl}-2-N-phenyl-1,3,5-triazine-2,4-diamine] | 261 nM
10 | CN(c1ccccc1)c1nc(N)nc(-c2noc(-c3ccc(C(F)(F)F)nc3Cl)n2)n1 [Example 142, 6-{5-[2-chloro-6-(trifluoromethyl)pyridin-3-yl]-1,2,4-oxadiazol-3-yl}-2-N-methyl-2-N-phenyl-1,3,5-triazine-2,4-diamine] | 5820 nM
11 | COCCOCc1ccc(-c2nc(-c3nc(N)nc(N(C)c4ccccc4)n3)no2)cn1 [Example 143, 6-{5-[6-(2-Methoxy-ethoxymethyl)-pyridin-3-yl]-[1,2,4]oxadiazol-3-yl}-N-methyl-N-phenyl-[1,3,5]triazine-2,4-diamine] | 3570 nM
12 | CN(c1ccccc1)c1nc(N)nc(-c2noc(-c3ccc(COC4CCOC4)nc3)n2)n1 (stereo not shown) [Example 144, N-Methyl-N-phenyl-6-{5-[6-(tetrahydro-furan-3-yloxymethyl)-pyridin-3-yl]-[1,2,4]oxadiazol-3-yl}-[1,3,5]triazine-2,4-diamine] | 1720 nM
13 | CN(c1ccccc1)c1nc(N)nc(-c2noc(-c3ccc(OCC4CC4)nc3)n2)n1 [Example 146, 6-{5-[6-(cyclopropylmethoxy)pyridin-3-yl]-1,2,4-oxadiazol-3-yl}-2-N-methyl-2-N-phenyl-1,3,5-triazine-2,4-diamine] | 188 nM
14 | CCN(c1ccccc1)c1nc(N)nc(-c2noc(-c3ccc(OCC(F)(F)F)nc3)n2)n1 [Example 147, 2-N-ethyl-2-N-phenyl-6-{5-[6-(2,2,2-trifluoroethoxy)pyridin-3-yl]-1,2,4-oxadiazol-3-yl}-1,3,5-triazine-2,4-diamine] | 42 nM
15 | CCOc1ccc(-c2nc(-c3nc(N)nc(N(C)c4ccccc4)n3)no2)cn1 [Example 148, 6-[5-(6-ethoxypyridin-3-yl)-1,2,4-oxadiazol-3-yl]-2-N-methyl-2-N-phenyl-1,3,5-triazine-2,4-diamine] | 323 nM
16 | CC(C)Oc1ccc(-c2nc(-c3nc(N)nc(N(C)c4ccccc4)n3)no2)cn1 [Example 149, 2-N-methyl-2-N-phenyl-6-{5-[6-(propan-2-yloxy)pyridin-3-yl]-1,2,4-oxadiazol-3-yl}-1,3,5-triazine-2,4-diamine] | 142 nM
17 | Nc1nc(-c2noc(-c3ccc(OCC(F)(F)F)nc3)n2)nc(N(CC(F)(F)F)c2ccccc2)n1 [Example 150, 2-N-phenyl-6-{5-[6-(2,2,2-trifluoroethoxy)pyridin-3-yl]-1,2,4-oxadiazol-3-yl}-2-N-(2,2,2-trifluoroethyl)-1,3,5-triazine-2,4-diamine] | 222 nM
18 | FC(F)(F)CNc1nc(Nc2ccccc2)nc(-c2noc(-c3ccc(OCC(F)(F)F)nc3)n2)n1 [Example 151, 2-N-phenyl-6-{5-[6-(2,2,2-trifluoroethoxy)pyridin-3-yl]-1,2,4-oxadiazol-3-yl}-4-N-(2,2,2-trifluoroethyl)-1,3,5-triazine-2,4-diamine] | 1480 nM
19 | Cc1cccnc1-c1nc(-c2nc(N)nc(N(C)c3ccccc3)n2)no1 [Example 152, 2-N-methyl-6-[5-(3-methylpyridin-2-yl)-1,2,4-oxadiazol-3-yl]-2-N-phenyl-1,3,5-triazine-2,4-diamine] | 1620 nM
20 | CN(c1ccccc1)c1nc(N)nc(-c2noc(-c3ccc(F)cn3)n2)n1 [Example 153, 6-[5-(5-fluoropyridin-2-yl)-1,2,4-oxadiazol-3-yl]-2-N-methyl-2-N-phenyl-1,3,5-triazine-2,4-diamine] | 1390 nM
21 | Cc1cc(C)c(-c2nc(-c3nc(N)nc(N(C)c4ccccc4)n3)no2)cn1 [Example 154, 6-[5-(4,6-dimethylpyridin-3-yl)-1,2,4-oxadiazol-3-yl]-2-N-methyl-2-N-phenyl-1,3,5-triazine-2,4-diamine] | 5060 nM
22 | CN(c1ccccc1)c1nc(N)nc(-c2noc(-c3cccc(OCC(F)(F)F)n3)n2)n1 [Example 155, 2-N-methyl-2-N-phenyl-6-{5-[6-(2,2,2-trifluoroethoxy)pyridin-2-yl]-1,2,4-oxadiazol-3-yl}-1,3,5-triazine-2,4-diamine] | 4570 nM
23 | COCCNc1nc(Nc2ccccc2)nc(-c2noc(-c3ccc(OCC(F)(F)F)nc3)n2)n1 [Example 157, 2-N-(2-methoxyethyl)-4-N-phenyl-6-{5-[6-(2,2,2-trifluoroethoxy)pyridin-3-yl]-1,2,4-oxadiazol-3-yl}-1,3,5-triazine-2,4-diamine] | 477 nM
24 | CN(c1ccccc1)c1nc(N)nc(-c2noc(-c3ccc(F)nc3)n2)n1 [Example 158, 6-[5-(6-fluoropyridin-3-yl)-1,2,4-oxadiazol-3-yl]-2-N-methyl-2-N-phenyl-1,3,5-triazine-2,4-diamine] | 3310 nM
25 | CN(c1ccccc1)c1nc(N)nc(-c2noc(C3CCN(C(=O)C(F)(F)F)CC3)n2)n1 [Example 159, 1-[4-(3-{4-Amino-6-[methyl(phenyl)amino]-1,3,5-triazin-2-yl}-1,2,4-oxadiazol-5-yl)piperidin-1-yl]-2,2,2-trifluoroethan-1-one] | 8670 nM
